Assay results: patent US12679825B2, “Crystalline and amorphous forms of a δ-opioid modulator” (Trevena, Inc., priority 2020, dated 2026)

Test: Approximate solubility by solvent addition technique
Type: physicochemical
Details: heating to 40° C. between solvent aliquots; for Approximate Solubility: 20° C.; for solubility: 20 °C, thermodynamic from solid
Protocol: The approximate solubility values of the amorphous free base in the selected solvent systems (see Table 1) was estimated by the solvent addition technique. The following procedure was used for the study: • Approximately 10 mg of material was weighed out into 18×2 mL push-cap vials. • Each solvent/solvent mixture was added to the appropriate vial in 5 volume aliquots (50 μL) until either 1 mL of solvent had been added or until the material dissolved. • In between additions, the sample was stirred at 40° C. • If 1000 μL of solvent was added without dissolution of the material, solubility was calculated to be below this point. • Once addition was complete, all experiments were temperature cycled between 40° C. and 5° C. (1 h hold; 0.1° C./min ramp/cool) for ca. 21 h. • Residual solids were isolated by centrifugation (0.22 μm nylon filter) or by decanting the mother liquor and analyzed by XRPD. • Anti-solvent addition (ASA) at 20° C. was carried out on solutions, followed by further temperature cycling for 21 h. • Any solids were then isolated by centrifugation (0.22 μm nylon filter) or by decanting the mother liquor and analyzed by XRPD. • Experiments which remained solutions had further AS added at 20° C. and were temperature cycled for a further 21 h. • Residual solids were isolated by centrifugation (0.22 μm nylon filter) or by decanting the mother liquor and analyzed by XRPD. • Selected isolated material was dried under vacuum at ambient temperature (ca. 20° C.) for ca. 19-21 h then re-analyzed by XRPD. • Selected dried solids were analyzed by PLM, TG/DSC, DSC, ^1H NMR spectroscopy and HPLC. • Further details can be found in Table 1.
The approximate solubility values of the amorphous free base in a range of different solvent systems was determined at ambient temperature, with heating to 40° C. between solvent aliquots. The solutions and slurries obtained were then used in initial small-scale crystallization trials (see Table 1 for details). […] The material formed gel in water. • Oiling was observed after ASA to experiments carried out in acetone, acetonitrile, DMSO, ethanol, MEK and 2-propanol. • Gum formed after ASA to experiments carried out in anisole, dichloromethane, ethyl acetate, 2-Me THF, toluene, ethanol:water 75:25 v/v and methanol:water 77:23 v/v. • After further temperature cycling, solids were obtained from experiments carried out using tBME, MEK and THF as the initial solvent system. […] (peak at 97° C.) during the first heat. A glass transition with a mid-point half-height of ca. 32° C. was observed during the first cool. […] The residual tBME could not be quantified, due to overlapping signals with the API. Residual heptane was observed, equal to 0.46% w/w, or 0.02 equivalents. • See Table 2 for further details.
Approximate solubility studies were carried out using the amorphous free base in a range of different solvent systems at 20° C., heating to 40° C. between additions of solvent aliquots. […] Poor solubility (≤10 mg/mL) was obtained in water, tBME and heptane, giving limited options for antisolvents. Once the solubility screen was complete, the residual slurries and solutions were temperature cycled, with anti-solvent addition then carried out where experiments remained solutions. […] Poorly crystalline material was isolated from 2-propanol:heptane 20:80 v/v %. Amorphous, or predominantly amorphous material was recovered from 7 experiments, using heptane, dichloromethane:heptane 20:80 v/v %, ethyl acetate:heptane 22:78 v/v %, 2-Me THF:heptane 38:62 v/v %, toluene:heptane 38:62 v/v %, ethanol:water 34:66 v/v % and methanol:water 48:52 v/v %. The remaining experiments yielded gel or oil.

COCCOc1cccc([C@@H]2CCN(CCn3cccc3)[C@H](C)[C@H]2COc2ccc3c(c2)C(=O)NC3)c1 [free base, (−)-6-{[(trans,trans)-4-[3-(2-methoxyethoxy)phenyl]-2-methyl-1-[2-(1H-pyrrol-1-yl)ethyl]piperidin-3-yl]methoxy}-2,3-dihydro-1H-isoindol-1-one]
>200 mg/mL: Approximate Solubility (2-Methyl THF) | Approximate Solubility (2-Propanol) | Approximate Solubility (Acetone) | Approximate Solubility (Acetonitrile) | Approximate Solubility (Anisole) | Approximate Solubility (DMSO) | Approximate Solubility (Dichloromethane) | Approximate Solubility (Ethanol) | Approximate Solubility (Ethyl acetate) | Approximate Solubility (MEK) | Approximate Solubility (Methanol) | Approximate Solubility (THF) | Approximate Solubility (Toluene)
≤ 10 mg/mL: solubility (heptane, organic solvent or mixture) | solubility (tBME, organic solvent or mixture) | solubility (water)
> 200 mg/mL: solubility (2-methyl THF, organic solvent or mixture) | solubility (2-propanol, organic solvent or mixture) | solubility (DMSO, organic solvent or mixture) | solubility (MEK (methyl ethyl ketone), organic solvent or mixture, MEK) | solubility (THF, organic solvent or mixture) | solubility (acetone, organic solvent or mixture) | solubility (acetonitrile, organic solvent or mixture) | solubility (anisole, organic solvent or mixture) | solubility (dichloromethane, organic solvent or mixture) | solubility (ethanol, organic solvent or mixture) | solubility (ethanol:water 75:25 v/v, aqueous with cosolvent or surfactant or cyclodextrin, Ethanol:Water 75:25 v/v) | solubility (ethyl acetate, organic solvent or mixture) | solubility (methanol, organic solvent or mixture) | solubility (toluene, organic solvent or mixture)
50 mg/mL: solubility (methanol:water 77:23 v/v, aqueous with cosolvent or surfactant or cyclodextrin, Methanol:Water 77:23 v/v)
